The source of these data is patent US20020077291A1, “Method of treatment of tumors using transforming growth factor-alpha” (priority 2000, published 2002).

Series [1] has as its system human epidermal cancer cell tumor (A-431). In words: Effect of TGF-α and cisplatin on tumor growth in the A431 human epidermal cancer MetaMouse model. It counts as in vivo, nude mice. The note with it: FIGS. 1 and 3; for tumor growth (mean tumor volume): A431 tumor orthotopically implanted in nude mice, cisplatinum 10 mg/kg days 3, 9 (20), TGF-alpha 50 ug/kg days 3-7, 9-13 (20-24), 26 days; for tumor growth inhibition compared with cisplatinum treatment: TGF-alpha alone 50 ug/kg vs cisplatinum 10 mg/kg, A431 model. As to the method: Using a nude mouse model and human epidermal cancer cell tumor (A-431), having 10^7 or greater EGF receptors, the inventors investigated whether TGF-alpha would promote tumor growth. In a parallel experiment, the tumor was treated with a chemotherapeutic agent, cisplatinum. […] In a further parallel experiment, the inventors investigated whether TGF-alpha would directly influence the survival of the tumor. […] Five mice in three of the four groups were sacrificed at this time. […] Phase 3 began on day 20.
The study consisted of four groups of nude mice:
1. Group A—control (15 animals); this group was implanted with tumor and treated only with placebo (according to TGF-injection schedule).
2. Group B—TGF-controls (10 animals); this group was implanted with tumor and received only TGF-injection (according to TGF-injection schedule).
PHASE 1 :On day 1 all animals were orthotopically implanted with tumor in their breast fat flaps (2-3 tumor tissue specimens per animal). On day 3 in the morning the tumor was measured in all animals. Then animals from group B and D received the first injection of TGF-alpha, animals from group A and C received placebo. Six hours later animals from group C and D received cisplatin injection.
(§1) TGF-alpha was injected at a concentration of 1 microgram per mouse (assuming mouse weighs 20 gram) or 50 microgram per kg.
On day 4, day 5, day 6 and day 7 animals from group B and D received additional TGF-alpha injections spaced 24 hours from the first administration; at the same time, animals from group A and C received placebo.
On day 6 the tumor load in all animals was measured again.
On day 8, five animals were randomly selected from group A, C and D for sacrifice. Their tumor load was measured again, their blood drawn and their intestines, kidneys and spleen removed and preserved. The spleen weight was determined at the time of collection.
(§2) Phase 2. […] On day 10, day 11, day 12 and day 13 animals from group B and D received additional TGF-alpha injections spaced 24 hours from the 9th day administration; animals from group A and C receive placebo at the same time.
On day 12 the tumor load in all animals was measured again. On day 15 […]. their tumor load was measured again, their blood drawn and their intestines, kidneys and spleen removed and preserved. The spleen weight was determined at the time of collection.
Phase 3. On day 20 in the morning the tumor load was measured in all remaining animals according to anticancer procedure. Each group of 10 (groups A, B, C, D) mice were divided into two subgroups: for phase 3A, 5 animals in each group were maintained with no further treatments). […]

Series [2] has as its system EGF receptor family (e.g., ErbB1 through 4). The note with it: background statement; cited from earlier work.
A short description of series [3]: Toxicity (body weight, death) in tumor-bearing nude mice of the A431 model. The series is classed as in vivo.
Text: Using a nude mouse model and human epidermal cancer cell tumor (A-431), having 10^7 or greater EGF receptors, the inventors investigated whether TGF-alpha would promote tumor growth. […] In a further parallel experiment, the inventors investigated whether TGF-alpha would directly influence the survival of the tumor. […] Five mice in three of the four groups were sacrificed at this time. […] Phase 3 began on day 20.
PHASE 1 :On day 1 all animals were orthotopically implanted with tumor in their breast fat flaps (2-3 tumor tissue specimens per animal). On day 3 in the morning the tumor was measured in all animals. Then animals from group B and D received the first injection of TGF-alpha, animals from group A and C received placebo.
as §1, §2
Phase 3. On day 20 in the morning the tumor load was measured in all remaining animals according to anticancer procedure. Each group of 10 (groups A, B, C, D) mice were divided into two subgroups: for phase 3A, 5 animals in each group were maintained with no further treatments). For phase 3B, 5 animals from original groups B and D received another injection of TGF-alpha and animals from original group A and C received placebo. […] On day 21, 22, 23 and 24 the five animals from original groups B and D received additional TGF-alpha injections spaced 24 hours from the 20th day of administration; the five selected animals from original group a and c received placebo at the same time. The experiment was terminated on day 26.
body weight—daily for all animals

For series [4] the following is noted: background statement; cited from earlier work.

With `N.N.[Cl][Pt][Cl]` [cisplatinum, cisplatin, reference compound], the “tumor growth (mean tumor volume)” value in series [1] was “more effective than the control”.
As to “transforming growth factor alpha [TGF-alpha]”, in series [1], the “tumor growth (mean tumor volume)” value is recorded as “inhibited tumor growth” and the “tumor growth inhibition compared with cisplatinum treatment” value is “to the same degree as cisplatinum treatment”. Moreover, the “tumor growth inhibition compared with cisplatinum treatment” value in series [1] (listed as TGF-α) was “as effective as cisplatin”. Further, the binding affinity result in series [2] is recorded as “high affinity in the nanomolar range”. The “protection against death caused by the third treatment of cisplatinum” value in series [3] (TGF-alpha 50 ug/kg days 20-24 with cisplatinum 10 mg/kg day 20, FIG. 4) was “protected against the death”. Further, the “protection against toxicity of cisplatinum” value in series [3] (TGF-alpha 50 ug/kg given with cisplatinum 10 mg/kg, FIGS. 2 and 4) is “protected against toxicity of cisplatinum”. Also, the body weight result in series [3] (mean body weight, daily, 26 days, FIGS. 2 and 4, cisplatin effect at the third treatment (day 20)) is recorded as “no effect on body weight”. For the same compound, the “acid and heat stability” value in series [4] was “acid and heat stable”.
